Test results published in patent US10487068B2, “Pyridazine derivatives as RORc modulators” (Genentech, Inc., priority 2015, dated 2019).

Biological target: T1, RORc ligand binding domain (Homo sapiens, UniProt P51449)
T1 sequence (P51449 269-508 limits assumed): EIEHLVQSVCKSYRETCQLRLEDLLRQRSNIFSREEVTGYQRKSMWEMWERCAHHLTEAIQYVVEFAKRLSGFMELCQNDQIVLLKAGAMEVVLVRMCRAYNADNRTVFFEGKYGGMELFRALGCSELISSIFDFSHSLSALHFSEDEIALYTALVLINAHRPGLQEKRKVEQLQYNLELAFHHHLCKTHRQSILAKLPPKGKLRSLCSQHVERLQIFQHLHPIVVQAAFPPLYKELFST
Experiment: In Vitro RORc Ligand Binding Assay
Details: RORc IC50, radioligand 25-[3H]hydroxycholesterol 6 nM; 0.6 ug/mL RORc receptor; 3 h at 25° C.

IC50 [nM] | Compound
15 | CC1(C)[C@H]2CC[C@]1(c1ncccn1)c1nnc(-c3c(F)cccc3F)cc12 [Example 1, (5R,8R)-3-(2,6-difluorophenyl)-9,9-dimethyl-8-(pyrimidin-2-yl)-5,6,7,8-tetrahydro-5,8-methanocinnoline]
13.4 | CC1(C)[C@H]2CC[C@]1(c1cccnn1)c1nnc(-c3c(F)cccc3F)cc12 [Example 2, (5R,8S)-3-(2,6-difluorophenyl)-9,9-dimethyl-8-(pyridazin-3-yl)-5,6,7,8-tetrahydro-5,8-methanocinnoline]
38.4 | CC1(C)[C@H]2CC[C@]1(c1c[nH]c(=O)cn1)c1nnc(-c3c(F)cccc3F)cc12 [Example 5, 5-((5R,8S)-3-(2,6-difluorophenyl)-9,9-dimethyl-5,6,7,8-tetrahydro-5,8-methanocinnolin-8-yl)pyrazin-2(1H)-one]
115 | CC1(C)[C@H]2CC[C@]1(c1ncc(O)cn1)c1nnc(-c3c(F)cccc3F)cc12 [Example 6, 2-((5R,8R)-3-(2,6-difluorophenyl)-9,9-dimethyl-5,6,7,8-tetrahydro-5,8-methanocinnolin-8-yl)pyrimidin-5-ol]
64 | CC1(C)[C@H]2CC[C@]1(c1ccnc(=O)[nH]1)c1nnc(-c3c(F)cccc3F)cc12 [Example 7, 6-((5R,8S)-3-(2,6-difluorophenyl)-9,9-dimethyl-5,6,7,8-tetrahydro-5,8-methanocinnolin-8-yl)pyrimidin-2(1H)-one]
108 | Cn1c([C@@]23CC[C@@H](c4cc(-c5c(F)cccc5F)nnc42)C3(C)C)ccc(C#N)c1=O [Example 8, 6-((5R,8S)-3-(2,6-difluorophenyl)-9,9-dimethyl-5,6,7,8-tetrahydro-5,8-methanocinnolin-8-yl)-1-methyl-2-oxo-1,2-dihydropyridine-3-carbonitrile]
7.7 | COC(=O)c1cncc([C@@]23CC[C@@H](c4cc(-c5c(F)cccc5F)nnc42)C3(C)C)n1 [Example 9, methyl 6-((5R,8S)-3-(2,6-difluorophenyl)-9,9-dimethyl-5,6,7,8-tetrahydro-5,8-methanocinnolin-8-yl)pyrazine-2-carboxylate]
389 | COC(=O)c1cnc([C@@]23CC[C@@H](c4cc(-c5c(F)cccc5F)nnc42)C3(C)C)cn1 [Example 10, methyl 5-((5R,8S)-3-(2,6-difluorophenyl)-9,9-dimethyl-5,6,7,8-tetrahydro-5,8-methanocinnolin-8-yl)pyrazine-2-carboxylate]
38.9 | CC1(C)[C@H]2CC[C@]1(c1cncc(C(=O)O)n1)c1nnc(-c3c(F)cccc3F)cc12 [Example 11, 6-((5R,8S)-3-(2,6-difluorophenyl)-9,9-dimethyl-5,6,7,8-tetrahydro-5,8-methanocinnolin-8-yl)pyrazine-2-carboxylic acid]
18.3 | CC1(C)[C@H]2CC[C@]1(c1cncc(C(N)=O)n1)c1nnc(-c3c(F)cccc3F)cc12 [Example 12, 6-((5R,8S)-3-(2,6-difluorophenyl)-9,9-dimethyl-5,6,7,8-tetrahydro-5,8-methanocinnolin-8-yl)pyrazine-2-carboxamide]
4270 | CC1(C)[C@H]2CC[C@]1(c1cnc(C(N)=O)cn1)c1nnc(-c3c(F)cccc3F)cc12 [Example 13, 5-((5R,8S)-3-(2,6-difluorophenyl)-9,9-dimethyl-5,6,7,8-tetrahydro-5,8-methanocinnolin-8-yl)pyrazine-2-carboxamide]
5.7 | CC1(C)[C@H]2CC[C@]1(c1cncc(C#N)n1)c1nnc(-c3c(F)cccc3F)cc12 [Example 14, 6-((5R,8S)-3-(2,6-difluorophenyl)-9,9-dimethyl-5,6,7,8-tetrahydro-5,8-methanocinnolin-8-yl)pyrazine-2-carbonitrile]
1310 | CC1(C)[C@H]2CC[C@]1(c1cnc(C#N)cn1)c1nnc(-c3c(F)cccc3F)cc12 [Example 15, 5-((5R,8S)-3-(2,6-difluorophenyl)-9,9-dimethyl-5,6,7,8-tetrahydro-5,8-methanocinnolin-8-yl)pyrazine-2-carbonitrile]
7.6 | CC1(C)[C@H]2CC[C@]1(c1cccc(C#N)n1)c1nnc(-c3c(F)cccc3F)cc12 [Example 16, 6-((5R,8S)-3-(2,6-difluorophenyl)-9,9-dimethyl-5,6,7,8-tetrahydro-5,8-methanocinnolin-8-yl)picolinonitrile]
20.5 | CNC(=O)c1cccc([C@@]23CC[C@@H](c4cc(-c5c(F)cccc5F)nnc42)C3(C)C)n1 [Example 17, 6-((5R,8S)-3-(2,6-difluorophenyl)-9,9-dimethyl-5,6,7,8-tetrahydro-5,8-methanocinnolin-8-yl)-N-methylpicolinamide]
35.7 | CN(C)C(=O)c1cccc([C@@]23CC[C@@H](c4cc(-c5c(F)cccc5F)nnc42)C3(C)C)n1 [Example 18, 6-((5R,8S)-3-(2,6-difluorophenyl)-9,9-dimethyl-5,6,7,8-tetrahydro-5,8-methanocinnolin-8-yl)-N,N-dimethylpicolinamide]
20.3 | Cc1cncnc1[C@@]12CC[C@@H](c3cc(-c4c(F)cccc4F)nnc31)C2(C)C [Example 19]
140 | CC1(C)[C@H]2CC[C@]1(c1nccc(=O)[nH]1)c1nnc(-c3c(F)cccc3F)cc12 [Example 20, 2-((5R,8R)-3-(2,6-difluorophenyl)-9,9-dimethyl-5,6,7,8-tetrahydro-5,8-methanocinnolin-8-yl)pyrimidin-4(3H)-one]
23.8 | COc1ccnc([C@@]23CC[C@@H](c4cc(-c5c(F)cccc5F)nnc42)C3(C)C)n1 [Example 21, (5R,8R)-3-(2,6-difluorophenyl)-8-(4-methoxypyrimidin-2-yl)-9,9-dimethyl-5,6,7,8-tetrahydro-5,8-methanocinnoline]
33.5 | CC1(C)[C@H]2CC[C@]1(c1cc(=O)cco1)c1nnc(-c3c(F)cccc3F)cc12 [Example 22, 2-((5R,8R)-3-(2,6-difluorophenyl)-9,9-dimethyl-5,6,7,8-tetrahydro-5,8-methanocinnolin-8-yl)-4H-pyran-4-one]
21.9 | CC1(C)[C@H]2CC[C@]1(c1ccnc(N)n1)c1nnc(-c3c(F)cccc3F)cc12 [Example 23]
1940 | CC1(C)[C@H]2CC[C@]1(c1cc(=O)cc[nH]1)c1nnc(-c3c(F)cccc3F)cc12 [Example 24, 2-((5R,8S)-3-(2,6-difluorophenyl)-9,9-dimethyl-5,6,7,8-tetrahydro-5,8-methanocinnolin-8-yl)pyridin-4(1H)-one]
2490 | CC1(C)[C@H]2CC[C@]1(c1cc(O)cc(=O)o1)c1nnc(-c3c(F)cccc3F)cc12 [Example 25, 6-((5R,8R)-3-(2,6-difluorophenyl)-9,9-dimethyl-5,6,7,8-tetrahydro-5,8-methanocinnolin-8-yl)-4-hydroxy-2H-pyran-2-one]
57.2 | COc1ccnc([C@@]23CC[C@@H](c4cc(-c5c(F)cccc5F)nnc42)C3(C)C)c1 [Example 26]
26.4 | CNC(=O)c1cncc([C@@]23CC[C@@H](c4cc(-c5c(F)cccc5F)nnc42)C3(C)C)n1 [Example 27, 6-((5R,8S)-3-(2,6-difluorophenyl)-9,9-dimethyl-5,6,7,8-tetrahydro-5,8-methanocinnolin-8-yl)-N-methylpyrazine-2-carboxamide]
